Data on 10 molecules can be found in patent publication US5739351A, “Perhydroisoindole derivatives as substance P antagonists” (Rhone-Poulenc Rorer S.A., priority 1994, dated 1998).

The ED50 is the dose that gives a 50% effect, or the effect in half of the subjects. Higher therefore signals weaker potency.

Assay [1] relates to increase in capillary permeability brought about by septide (a substance P agonist). Nature of the assay: inhibition of the increase in capillary permeability brought about by septide. The assay is classed as in vivo. Particulars: Cavia porcellus, po; guinea pig, capillary permeability increase induced by septide. From the text: The study of certain isoindole derivatives of general formula (I) in the technique of A. Saria et al., Arch.

Assay [2] concerns formaldehyde pain. Description: formaldehyde pain test in guinea pigs. The assay is classed as in vivo. The following applies: Cavia porcellus, po, guinea pig. As to the method:
Moreover, certain products according to the invention were studied in the formaldehyde pain test in guinea pigs. The ED50 of the product is determined in this way.

The molecule `COc1ccccc1[C@@]1(O)C[C@@H](CC#N)C[C@@H]2CN(C(=O)Cc3ccccc3N3CCCC3)C[C@@H]21` (racemic) [Example 2, (3aRS,4RS,6RS,7aSR)-6-Cyanomethyl-4-(2-methoxyphenyl)-2-{[2-(1-pyrrolidinyl)phenyl]acetyl} perhydroisoindol-4-ol] had an ED50 in assay [1] of 1 mg/kg.
`N#CC[C@@H]1C[C@@H]2CN(C(=O)Cc3ccccc3O)C[C@@H]2[C@@](O)(c2ccccc2F)C1` (racemic) [Example 14, (3aRS,4RS,6SR,7aSR)-6-Cyanomethyl-4-(2-fluorophenyl)-2-(2-hydroxyphenylacetyl)perhydroisoindol-4-ol]: in assay [1], the 50% effective dose (ED50) was in the range of 0.2 to 0.4 mg/kg.
Take `COc1ccccc1CC(=O)N1C[C@@H]2C[C@@H](CNC#N)C[C@@](O)(c3ccccc3OC)[C@@H]2C1` (relative stereo) [Example 18, (3aRS,4RS,6SR,7aSR)-6-Cyanoaminomethyl-4-(2-methoxyphenyl)-2-[(2-methoxyphenyl)acetyl]perhydroisoindolol]: in assay [1], the 50% effect level (ED50) was put at a dose of 1 mg/kg.
As for `COc1ccccc1[C@H](C)C(=O)N1C[C@@H]2C[C@@H](CC#N)C[C@@](O)(c3ccccc3OC)[C@@H]2C1` [Example 1, (3aS,4S,6S,7aR)-6-Cyanomethyl-4-(2-methoxyphenyl)-2-[(S)-2-(2-methoxylphenyl)propionyl]perhydroisoindol-4-ol], the median effective dose (ED50) amounted to 0.004 mg/kg in assay [1] and 1 mg/kg in assay [2].
`COc1ccccc1[C@]1(O)C[C@H](CC#N)C[C@H]2CN(C(=O)[C@@H](C)c3ccccc3O)C[C@H]21` [Example 4, (3aS,4S,6S,7aR)-6-Cyanomethyl-2-[(S)-2-(2-hydroxyphenyl)propionyl]-4-(2-methoxyphenyl)perhydroisoindol-4-ol] displayed an ED50 in assay [1] of 0.004 mg/kg.
`COc1ccccc1CC(=O)N1C[C@@H]2C[C@@H](CC#N)C[C@@](O)(c3ccccc3OC)[C@@H]2C1` [Example 5, (3aS, 4S, 6S, 7aR)-6-Cyanomethyl-4-(2-methoxyphenyl)-2-[(2-methoxyphenyl)acetyl]perhydroisoindol-4-ol]: the ED50 in assay [1] was 0.32 mg/kg; in assay [2], 3 to 30 mg/kg.
As to `COc1ccccc1[C@]1(O)C[C@H](CC#N)C[C@H]2CN(C(=O)Cc3ccc(Cl)c(Cl)c3)C[C@H]21` [Example 7, (3aS,4S,6S,7aR)-6-Cyanomethyl-2-[(3,4-dichlorophenyl)acetyl]-4-(2-methoxyphenyl)perhydroisoindol-4-ol], the ED50 in assay [1] is 0.36 mg/kg.
`COc1ccccc1[C@]1(O)C[C@H](CC#N)C[C@H]2CN(C(=O)[C@@H](N)c3ccccc3)C[C@H]21` [Example 9, (3aS,4S,6S,7aR)-2-[(S)-2-Amino-2-phenylacetyl]-6-cyanomethyl-4-(2-methoxyphenyl)perhydroisoindol-4-ol] had a median effective dose (ED50) in assay [2] of 3 to 30 mg/kg.
With `COc1ccccc1C(N)C(=O)N1C[C@@H]2C[C@@H](CC#N)C[C@@](O)(c3ccccc3OC)[C@@H]2C1` (stereo partly drawn) [Example 10], the median effective dose (ED50) in assay [1] came to 0.05 mg/kg.
Consider `COc1ccccc1[C@H](C)C(=O)N1C[C@@H]2C[C@@H](CC#N)C[C@@](O)(c3ccccc3F)[C@@H]2C1` [Example 13, (3aS,4S,6S,7aR)-6-Cyanomethyl-4-(2-fluorophenyl)-2-[(S)-2-(2-methoxyphenyl)propionyl]perhydroisoindol-4-ol], for which it took a dose of 0.02 mg/kg to reach the 50% effect level in assay [1] (ED50).
